Experiments:
[1] = target: Vascular endothelial growth factor receptor 2 (Homo sapiens, UniProt P35968); assay type: functional
D(1A) dopamine receptor = D(1A) dopamine receptor (Homo sapiens, UniProt P21728)
[2] = target: Gamma-aminobutyric acid type B receptor subunit 1 (Homo sapiens, UniProt Q9UBS5)
Cannabinoid receptor 1 = Cannabinoid receptor 1 (Homo sapiens, UniProt P21554); assay type: functional
[3] = target: T1, Corticotropin-releasing factor receptor 2 (Homo sapiens, UniProt Q13324)
T1 sequence (Q13324 whole entry): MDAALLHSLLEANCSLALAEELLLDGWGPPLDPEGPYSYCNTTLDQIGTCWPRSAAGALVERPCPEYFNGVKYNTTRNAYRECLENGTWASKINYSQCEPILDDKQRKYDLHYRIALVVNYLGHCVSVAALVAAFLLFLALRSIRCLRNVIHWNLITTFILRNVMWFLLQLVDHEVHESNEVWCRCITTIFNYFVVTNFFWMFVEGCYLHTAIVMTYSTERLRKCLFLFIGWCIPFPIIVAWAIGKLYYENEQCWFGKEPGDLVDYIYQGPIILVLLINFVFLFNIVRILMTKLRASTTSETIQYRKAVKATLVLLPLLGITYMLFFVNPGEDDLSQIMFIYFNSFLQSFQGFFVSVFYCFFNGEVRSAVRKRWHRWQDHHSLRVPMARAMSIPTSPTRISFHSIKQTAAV

[4] = target: 5-hydroxytryptamine receptor 7 (Homo sapiens, UniProt P34969)
Prothrombin = Prothrombin (Homo sapiens, UniProt P00734); assay type: functional
[5] = target: T2, Alpha-2A adrenergic receptor (Homo sapiens, UniProt P08913)
T2 sequence (P08913 whole entry): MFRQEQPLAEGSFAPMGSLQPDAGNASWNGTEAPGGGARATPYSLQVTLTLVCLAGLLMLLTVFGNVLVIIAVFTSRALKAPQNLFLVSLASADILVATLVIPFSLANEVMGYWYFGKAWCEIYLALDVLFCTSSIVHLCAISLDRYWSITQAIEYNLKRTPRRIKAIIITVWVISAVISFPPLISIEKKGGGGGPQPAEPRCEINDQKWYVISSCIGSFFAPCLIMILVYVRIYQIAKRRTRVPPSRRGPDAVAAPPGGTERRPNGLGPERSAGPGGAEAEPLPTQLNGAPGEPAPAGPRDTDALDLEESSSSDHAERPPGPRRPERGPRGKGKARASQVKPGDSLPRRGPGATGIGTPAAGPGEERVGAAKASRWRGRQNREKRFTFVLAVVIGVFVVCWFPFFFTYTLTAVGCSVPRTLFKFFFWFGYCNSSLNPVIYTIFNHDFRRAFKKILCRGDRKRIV

[6] = target: Sodium-dependent dopamine transporter (Homo sapiens, UniProt Q01959)
Chain of Sodium-dependent dopamine transporter (Q01959 whole entry): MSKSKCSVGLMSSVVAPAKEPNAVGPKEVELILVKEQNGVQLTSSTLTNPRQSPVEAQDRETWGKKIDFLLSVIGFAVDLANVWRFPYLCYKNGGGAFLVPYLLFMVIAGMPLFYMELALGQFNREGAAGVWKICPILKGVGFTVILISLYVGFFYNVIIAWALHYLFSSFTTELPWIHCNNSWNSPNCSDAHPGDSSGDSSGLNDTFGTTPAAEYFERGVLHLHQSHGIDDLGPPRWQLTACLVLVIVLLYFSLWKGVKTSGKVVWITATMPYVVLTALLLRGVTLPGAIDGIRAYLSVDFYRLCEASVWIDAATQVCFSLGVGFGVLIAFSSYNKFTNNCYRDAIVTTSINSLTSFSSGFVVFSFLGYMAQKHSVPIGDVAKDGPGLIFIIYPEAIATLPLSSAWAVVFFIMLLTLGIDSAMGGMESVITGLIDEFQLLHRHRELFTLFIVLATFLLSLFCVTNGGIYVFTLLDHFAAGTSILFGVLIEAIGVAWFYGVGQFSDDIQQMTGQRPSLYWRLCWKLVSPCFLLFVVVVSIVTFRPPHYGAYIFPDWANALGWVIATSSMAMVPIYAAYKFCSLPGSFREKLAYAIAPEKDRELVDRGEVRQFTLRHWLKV

Adenosine receptor A3 = target: T3, Adenosine receptor A3 (Homo sapiens, UniProt P0DMS8)
T3 sequence (P0DMS8 whole entry): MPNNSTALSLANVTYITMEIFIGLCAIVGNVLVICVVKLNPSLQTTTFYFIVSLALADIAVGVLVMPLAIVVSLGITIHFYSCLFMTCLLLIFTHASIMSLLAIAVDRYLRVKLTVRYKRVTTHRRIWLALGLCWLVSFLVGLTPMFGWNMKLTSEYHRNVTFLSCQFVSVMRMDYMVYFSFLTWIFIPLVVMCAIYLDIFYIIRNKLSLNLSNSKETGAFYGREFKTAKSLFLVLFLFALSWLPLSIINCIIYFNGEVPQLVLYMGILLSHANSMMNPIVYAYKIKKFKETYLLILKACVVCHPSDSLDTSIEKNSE

[7] = target: 3',5'-cyclic-AMP phosphodiesterase 4A (Homo sapiens, UniProt P27815); assay type: functional
Chain of 3',5'-cyclic-AMP phosphodiesterase 4A (P27815 whole entry): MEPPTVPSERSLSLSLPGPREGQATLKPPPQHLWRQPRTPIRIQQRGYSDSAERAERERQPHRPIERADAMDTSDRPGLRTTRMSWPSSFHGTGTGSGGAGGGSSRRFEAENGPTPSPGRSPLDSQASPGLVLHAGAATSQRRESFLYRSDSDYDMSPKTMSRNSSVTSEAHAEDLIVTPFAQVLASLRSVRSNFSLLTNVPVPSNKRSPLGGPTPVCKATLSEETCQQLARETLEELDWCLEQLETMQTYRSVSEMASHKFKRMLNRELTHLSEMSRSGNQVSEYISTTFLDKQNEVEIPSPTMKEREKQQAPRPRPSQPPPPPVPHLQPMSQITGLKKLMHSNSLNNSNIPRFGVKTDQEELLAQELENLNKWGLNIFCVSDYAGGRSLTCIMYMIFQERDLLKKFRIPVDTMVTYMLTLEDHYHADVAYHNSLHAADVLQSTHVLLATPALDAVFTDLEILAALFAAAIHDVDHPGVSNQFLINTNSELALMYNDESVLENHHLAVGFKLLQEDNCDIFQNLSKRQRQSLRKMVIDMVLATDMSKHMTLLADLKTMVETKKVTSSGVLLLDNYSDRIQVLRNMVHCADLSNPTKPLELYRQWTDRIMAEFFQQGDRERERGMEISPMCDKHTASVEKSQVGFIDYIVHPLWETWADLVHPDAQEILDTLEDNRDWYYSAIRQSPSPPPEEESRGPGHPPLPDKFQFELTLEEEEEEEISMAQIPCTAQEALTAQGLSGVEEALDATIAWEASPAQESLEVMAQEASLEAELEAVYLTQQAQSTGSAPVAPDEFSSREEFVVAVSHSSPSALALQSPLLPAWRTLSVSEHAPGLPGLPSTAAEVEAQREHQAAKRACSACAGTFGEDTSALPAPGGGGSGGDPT

Thromboxane A2 receptor [8] = target: T4, Thromboxane A2 receptor (Homo sapiens, UniProt P21731); assay type: functional, cell-based
T4 sequence (P21731 whole entry): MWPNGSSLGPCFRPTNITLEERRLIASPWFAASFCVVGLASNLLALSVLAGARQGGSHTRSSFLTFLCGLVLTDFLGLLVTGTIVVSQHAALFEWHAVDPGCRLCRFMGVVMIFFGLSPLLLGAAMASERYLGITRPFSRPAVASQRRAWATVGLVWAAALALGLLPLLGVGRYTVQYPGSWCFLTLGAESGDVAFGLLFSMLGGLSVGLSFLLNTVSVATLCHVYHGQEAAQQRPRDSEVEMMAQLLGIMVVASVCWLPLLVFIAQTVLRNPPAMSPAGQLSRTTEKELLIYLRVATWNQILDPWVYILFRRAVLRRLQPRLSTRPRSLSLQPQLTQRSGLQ

[9] = target: Gamma-aminobutyric acid receptor subunit alpha-1/alpha-2/beta-2/gamma-2 (Homo sapiens, UniProt P14867+P47870+P18507+P47869); assay type: functional, cell-based
Chain of Gamma-aminobutyric acid receptor subunit alpha-1/alpha-2/beta-2/gamma-2 (P14867 whole entry): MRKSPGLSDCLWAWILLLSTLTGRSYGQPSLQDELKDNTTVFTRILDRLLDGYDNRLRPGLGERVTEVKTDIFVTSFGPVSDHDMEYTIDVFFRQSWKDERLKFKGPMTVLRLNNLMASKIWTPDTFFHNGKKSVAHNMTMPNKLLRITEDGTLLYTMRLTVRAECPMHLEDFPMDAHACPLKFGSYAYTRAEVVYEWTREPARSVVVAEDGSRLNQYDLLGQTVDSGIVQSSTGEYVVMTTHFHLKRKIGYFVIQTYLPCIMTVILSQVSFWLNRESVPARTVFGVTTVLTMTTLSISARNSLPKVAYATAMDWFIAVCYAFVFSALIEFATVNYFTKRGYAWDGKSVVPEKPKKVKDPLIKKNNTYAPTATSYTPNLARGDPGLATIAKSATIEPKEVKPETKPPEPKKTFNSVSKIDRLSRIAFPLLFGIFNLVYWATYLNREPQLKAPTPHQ
Chain of Gamma-aminobutyric acid receptor subunit alpha-1/alpha-2/beta-2/gamma-2 (P47870 whole entry): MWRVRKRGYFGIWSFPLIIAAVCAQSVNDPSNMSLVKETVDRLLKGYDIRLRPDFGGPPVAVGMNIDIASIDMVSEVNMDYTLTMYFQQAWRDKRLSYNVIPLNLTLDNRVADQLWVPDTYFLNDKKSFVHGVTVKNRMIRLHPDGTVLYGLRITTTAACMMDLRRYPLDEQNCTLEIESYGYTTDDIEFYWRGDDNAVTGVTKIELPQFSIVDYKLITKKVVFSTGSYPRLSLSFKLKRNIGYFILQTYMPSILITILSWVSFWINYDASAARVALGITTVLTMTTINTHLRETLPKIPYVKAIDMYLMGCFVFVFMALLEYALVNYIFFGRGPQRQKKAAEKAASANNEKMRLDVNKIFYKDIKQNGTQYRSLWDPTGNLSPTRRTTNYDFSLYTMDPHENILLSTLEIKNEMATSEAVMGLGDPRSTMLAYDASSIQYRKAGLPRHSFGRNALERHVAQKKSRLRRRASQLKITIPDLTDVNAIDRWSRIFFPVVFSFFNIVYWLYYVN
Chain of Gamma-aminobutyric acid receptor subunit alpha-1/alpha-2/beta-2/gamma-2 (P18507 whole entry): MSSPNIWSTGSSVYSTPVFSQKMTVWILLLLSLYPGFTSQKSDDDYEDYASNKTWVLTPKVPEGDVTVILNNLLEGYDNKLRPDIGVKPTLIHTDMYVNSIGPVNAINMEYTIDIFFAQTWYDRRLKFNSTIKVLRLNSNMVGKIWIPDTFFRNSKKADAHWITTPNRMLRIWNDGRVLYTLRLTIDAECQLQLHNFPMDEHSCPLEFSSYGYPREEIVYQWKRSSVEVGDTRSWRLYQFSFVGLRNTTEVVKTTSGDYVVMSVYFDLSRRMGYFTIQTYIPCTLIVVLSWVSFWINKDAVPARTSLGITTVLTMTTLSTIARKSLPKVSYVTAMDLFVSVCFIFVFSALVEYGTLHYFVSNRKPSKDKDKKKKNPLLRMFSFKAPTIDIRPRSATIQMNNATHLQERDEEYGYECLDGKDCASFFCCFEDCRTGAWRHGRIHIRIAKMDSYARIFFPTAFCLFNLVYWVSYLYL
Chain of Gamma-aminobutyric acid receptor subunit alpha-1/alpha-2/beta-2/gamma-2 (P47869 whole entry): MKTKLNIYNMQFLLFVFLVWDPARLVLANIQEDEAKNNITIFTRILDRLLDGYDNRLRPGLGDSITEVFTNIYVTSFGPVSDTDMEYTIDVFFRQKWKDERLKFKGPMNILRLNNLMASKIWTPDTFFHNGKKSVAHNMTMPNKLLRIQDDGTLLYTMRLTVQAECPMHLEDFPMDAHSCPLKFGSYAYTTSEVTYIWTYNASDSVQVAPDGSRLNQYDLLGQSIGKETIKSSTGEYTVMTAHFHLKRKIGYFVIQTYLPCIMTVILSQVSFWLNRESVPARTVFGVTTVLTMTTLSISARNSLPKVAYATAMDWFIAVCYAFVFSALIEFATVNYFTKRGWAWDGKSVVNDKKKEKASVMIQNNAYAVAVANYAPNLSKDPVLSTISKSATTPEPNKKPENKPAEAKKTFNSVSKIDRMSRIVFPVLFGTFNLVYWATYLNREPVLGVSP

Thromboxane A2 receptor [10] = target: T4, Thromboxane A2 receptor; assay type: functional
Estrogen receptor = target: T5, Estrogen receptor (Homo sapiens, UniProt P03372)
T5 sequence (P03372 whole entry): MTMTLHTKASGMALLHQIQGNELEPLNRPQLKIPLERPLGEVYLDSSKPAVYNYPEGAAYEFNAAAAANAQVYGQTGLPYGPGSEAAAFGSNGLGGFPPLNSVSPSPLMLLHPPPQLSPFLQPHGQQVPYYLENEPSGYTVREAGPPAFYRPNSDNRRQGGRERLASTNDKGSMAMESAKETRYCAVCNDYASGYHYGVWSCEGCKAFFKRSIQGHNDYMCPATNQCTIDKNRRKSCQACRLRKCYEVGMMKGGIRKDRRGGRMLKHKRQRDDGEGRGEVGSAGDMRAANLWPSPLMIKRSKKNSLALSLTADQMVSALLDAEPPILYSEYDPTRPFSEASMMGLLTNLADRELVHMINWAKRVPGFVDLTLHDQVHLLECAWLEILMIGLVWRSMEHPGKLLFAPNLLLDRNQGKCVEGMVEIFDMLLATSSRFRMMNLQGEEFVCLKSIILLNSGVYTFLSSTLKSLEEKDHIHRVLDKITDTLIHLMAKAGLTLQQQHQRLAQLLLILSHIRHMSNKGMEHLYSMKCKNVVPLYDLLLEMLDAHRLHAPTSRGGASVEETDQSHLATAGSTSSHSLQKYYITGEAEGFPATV
Further: assay procedure not described here.

Chain of D(1A) dopamine receptor (P21728 whole entry): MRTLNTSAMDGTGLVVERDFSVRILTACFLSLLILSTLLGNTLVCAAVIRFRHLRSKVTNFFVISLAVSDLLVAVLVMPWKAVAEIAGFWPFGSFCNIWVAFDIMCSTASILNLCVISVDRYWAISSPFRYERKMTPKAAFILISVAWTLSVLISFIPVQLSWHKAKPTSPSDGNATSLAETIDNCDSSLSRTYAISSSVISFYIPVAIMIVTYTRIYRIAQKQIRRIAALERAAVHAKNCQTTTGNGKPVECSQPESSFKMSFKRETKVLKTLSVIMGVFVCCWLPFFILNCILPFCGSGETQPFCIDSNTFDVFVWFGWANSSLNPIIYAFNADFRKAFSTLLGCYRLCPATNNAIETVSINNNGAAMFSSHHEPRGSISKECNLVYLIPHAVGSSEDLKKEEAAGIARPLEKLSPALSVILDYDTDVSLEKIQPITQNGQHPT
Chain of Gamma-aminobutyric acid type B receptor subunit 1 (Q9UBS5 whole entry): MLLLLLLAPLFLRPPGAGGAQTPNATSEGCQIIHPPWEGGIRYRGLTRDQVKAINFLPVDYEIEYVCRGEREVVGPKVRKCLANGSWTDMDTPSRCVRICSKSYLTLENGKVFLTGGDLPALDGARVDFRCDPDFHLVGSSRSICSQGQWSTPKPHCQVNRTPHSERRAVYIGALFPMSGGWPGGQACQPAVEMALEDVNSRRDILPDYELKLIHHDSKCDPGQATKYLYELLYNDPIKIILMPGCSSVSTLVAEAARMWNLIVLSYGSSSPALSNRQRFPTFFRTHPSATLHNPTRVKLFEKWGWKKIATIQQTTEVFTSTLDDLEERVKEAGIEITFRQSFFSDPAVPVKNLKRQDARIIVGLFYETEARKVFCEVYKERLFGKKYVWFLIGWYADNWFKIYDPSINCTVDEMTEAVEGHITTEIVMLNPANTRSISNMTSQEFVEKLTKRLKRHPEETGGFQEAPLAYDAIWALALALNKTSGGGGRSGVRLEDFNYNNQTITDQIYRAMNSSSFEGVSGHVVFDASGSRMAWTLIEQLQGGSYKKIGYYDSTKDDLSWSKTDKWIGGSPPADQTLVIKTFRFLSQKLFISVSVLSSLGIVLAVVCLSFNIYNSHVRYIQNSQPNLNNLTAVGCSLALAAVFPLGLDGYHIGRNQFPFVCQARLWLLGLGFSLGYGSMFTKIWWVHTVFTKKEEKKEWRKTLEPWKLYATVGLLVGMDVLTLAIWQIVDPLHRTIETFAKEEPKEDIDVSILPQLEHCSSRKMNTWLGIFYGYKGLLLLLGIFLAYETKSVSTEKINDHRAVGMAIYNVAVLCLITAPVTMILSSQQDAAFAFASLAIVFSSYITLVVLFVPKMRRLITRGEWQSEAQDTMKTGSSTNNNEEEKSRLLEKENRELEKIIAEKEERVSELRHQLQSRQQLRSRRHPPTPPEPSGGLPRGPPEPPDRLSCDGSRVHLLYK

Row | Molecule | AC50 (D(1A) dopamine receptor) [µM] | AC50 [3] [µM] | AC50 (Prothrombin) [µM] | AC50 [6] [µM] | AC50 [7] [µM] | other results
1 | CC(CC1c2ccccc2CCc2ccccc21)CN(C)C (stereo not given) [BUTRIPTYLINE] |  |  |  |  |  | AC50 [1]: > 30 µM
2 | Cc1c(OCC(F)(F)F)ccnc1C[S+]([O-])c1nc2ccccc2[nH]1 (stereo not given) [LANSOPRAZOLE] | > 10 | > 30 |  |  |  | AC50 [2]: > 10 µM; AC50 (Cannabinoid receptor 1): > 10 µM; AC50 [4]: > 10 µM
3 | CO[C@]12C[C@@H](COC(=O)c3cncc(Br)c3)CN(C)[C@@H]1Cc1cn(C)c3cccc2c13 [NICERGOLINE] |  |  | > 30 | 11.2 | > 30 | AC50 [5]: 0.0426 µM; AC50 (Adenosine receptor A3): 22.4 µM
4 | COc1cccc(C2(O)CCCCC2CN(C)C)c1 (stereo not given) [TRAMADOL] | > 10 | > 30 |  |  |  | 
5 | THIMEROSAL |  |  | > 30 | > 30 | > 30 | AC50 (Thromboxane A2 receptor [8]): > 10 µM; AC50 [9]: > 30 µM; AC50 (Thromboxane A2 receptor [10]): > 30 µM; AC50 (Estrogen receptor): > 30 µM
